Calls of active or inactive are those of the source. The rule behind the calls is not given here.

By IC50 is commonly meant the midpoint of a concentration-inhibition curve. Read a low IC50 as greater potency.

Test [1] can be described thus: Ratio of IC50 for R17 activity to IC50 for HIV1 Rev activity.
Test [2] can be described thus: Inhibition of HIV1 REV protein binding to HIV1 [P33]RRE RNA by liquid scintillation assay. Also on record: species or system Human immunodeficiency virus 1.
In test [3] the test system is Human immunodeficiency virus 1. Briefly: Antiviral activity against HIV1 RF in CEM-SS cells assessed as cell protection against virus infection up to 260 uM by XTT assay. Type of test: functional, organism-based.
A short description of test [4]: Inhibition of R17 coat protein binding to [33P]labeled R17 operator RNA.

For the compound `CC(=O)OC[C@H]1O[C@H](O[C@]2(COC(C)=O)O[C@H](COC(=O)/C=C/c3ccccc3)[C@@H](O)[C@@H]2OC(=O)/C=C/c2ccccc2)[C@H](OC(C)=O)[C@@H](O)[C@@H]1OC(C)=O` [NIRURIDE], the Ratio IC50 in test [1] is more than 40. For the same compound, the IC50 is 3.3 µM in test [2] and more than 130 µM in test [4]. In addition, the outcome in test [3] was inactive.

(Values after ChEMBL document CHEMBL1158192, “Niruriside, a new HIV REV/RRE binding inhibitor from Phyllanthus niruri” (J Nat Prod, 1996).)
